Our source for the EC50, IC50 and outcome values is PubChem BioAssay AID179 (DTP/NCI, 2004).

As a reminder, the EC50 is the midpoint of the concentration-response curve. Broadly, the IC50 is the concentration at which inhibition is half-maximal. Read a low IC50 as greater potency in that assay.

Several values for one entry are separate records, joined by “and”; a condition that tells them apart may be missing. Equal values may be shown once. Activity calls are given as the source filed them.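 Rule for the calls: active = compounds giving half or more protection of infected cells from virus-caused growth loss, again on retest; inactive = the rest.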 Where a SMILES comes first, the peptide text is derived from it. [ ]: non-standard residue; d: D form. The star is where a group is joined. ONb = O=[N+]([O-])c1ccc(CO*)cc1; AllylGly = C=CC[CH](N)C(=O)O; Boc = CC(C)(C)OC(=O)*

The assay deals with CEM cells HIV-1 protection, formazan growth assay. Put plainly: NCI AIDS Antiviral Assay. To be noted: for IC50: measured here: growth of uninfected CEM cells. The method in brief: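 Human CEM cells, uninfected and HIV-1-infected, exposed to five drug concentrations; growth measured by soluble formazan assay and scored as percent protection from infection, with protecting compounds retested.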

For the compound `CC1(C)OC2OC(C(O)COC(=O)c3ccccc3)C(Cl)C2O1` (stereo unspecified), the EC50 is above 219 µM and the IC50 amounted to 151 µM. For `CN1C/C(=C\C=C\c2ccccc2)C(=O)/C(=C/C=C/c2ccccc2)C1` the same measures were above 7.24 µM and above 7.24 µM. For `O=C(C[P+](c1ccccc1)(c1ccccc1)c1ccccc1)C[P+](c1ccccc1)(c1ccccc1)c1ccccc1`, the EC50 is above 200 µM and the IC50 is 0.759 µM.

For `CC(C)(C)OC(=O)NCCCCCCC(=O)Cc1ccccc1`, the EC50 is above 200 µM and the IC50 is 117 µM.

As to `CC(=O)Nc1ccc(S(=O)(=O)N/N=C(\C)CN2C(=O)c3ccccc3C2=O)cc1`, the EC50 is above 229 µM and the IC50 is above 229 µM. Consider `CC(=O)/C=C/c1ccco1`, for which the EC50 is above 26.3 µM and the IC50 was above 26.3 µM. In the case of `C1CC2=C(C1)[Se]C(=C1Sc3nsnc3S1)[Se]2`, the EC50 was above 200 µM and the IC50 is 195 µM. On the same counts, the results for `CSC1=Nc2ccccc2-c2nc(-c3ccccc3)cc(-c3ccccc3)c2C1` are above 200 µM and above 200 µM. On the same counts, the results for `C=C1C(=O)O[C@@H]2C=C(C)C3=CC(=O)[C@](C)(C[C@H](OC(=O)/C(C)=C\C)[C@@H]12)O3` are above 5.37 µM and 0.224 µM. As to `CC1C2CC(CC2N)C1(C)C` (stereo unspecified), the EC50 was above 162 µM and the IC50 is above 162 µM.

Turning to `O=C1OCCOCCOCCOCCOC(=O)c2cccc1c2`, the EC50 is above 155 µM and the IC50 is above 155 µM. For `COc1ccc(OC)c2c3c(ccc12)C(c1ccccc1)OC3=O` (stereo unspecified), the outcome was inactive.

Consider `CCn1cc(C(=O)O)c(=O)c2cc(F)c(N3CCNCC3)nc21`, for which the result was inactive. As for `Cc1ccc(C(=O)/C=C/c2ccco2)cc1`, the EC50 is above 170 µM and the IC50 was found to be 53.7 µM. Turning to `O=C(CS(=O)(=O)c1ccccc1)c1ccccc1`, the EC50 is above 347 µM and the IC50 was 251 µM.

On to `COc1cc(C=O)c(-c2cc3c(cc2C=O)OCO3)c(OC)c1OC`, for which the EC50 was above 145 µM and the IC50 was found to be 51.3 µM. For `COCC[P+](c1ccccc1)(c1ccccc1)c1ccccc1`, the EC50 is above 200 µM and the IC50 was 7.76 µM. Take `S=C1SCN(C2CCCCCCCCCCC2)CN1C1CCCCCCCCCCC1`: the result was inactive.

With `CC(=O)N1CCN(C23OC4(N5CCN(C(C)=O)CC5)C5C6CC(C7C6C4C72)C53)CC1` (stereo unspecified), the EC50 is above 200 µM and the IC50 was above 200 µM. For `CCN(CC)C1Oc2cc3c(cc2C(c2cc(OC)c(O)c(OC)c2)C1C)OCO3` (stereo unspecified), the EC50 was above 200 µM and the IC50 amounted to 1.29 µM. For `CCN(CC)S(=O)(=O)c1ccc([O-])c(C(=O)[O-])c1.[Cu+2].[OH3+]` the same measures were above 200 µM and 28.2 µM. On the same counts, the results for `COc1cc(Oc2nc3cc(F)c(F)cc3nc2-c2ccccc2)cc(OC)c1OC` are above 100 µM and 35.5 µM. For `c1cnn(C23C4C5C6C4C2C6C53)c1` (stereo unspecified) the same measures were above 200 µM and above 200 µM. In the case of `O=C(O)c1ccccc1N=NNc1ccc(/C=C/c2ccc(N=NNc3ccccc3C(=O)O)cc2S(=O)(=O)O)c(S(=O)(=O)O)c1`, the EC50 is 6.31 µM and the IC50 amounted to 389 µM. On the same counts, the results for `OCCCCCCCCCCCOc1ccc(C2OCC3(CO2)COC(c2ccc(OCCCCCCCCCCCO)cc2)OC3)cc1` (stereo unspecified) are above 50.1 µM and above 50.1 µM.

For the compound `O=C(O)CN(CC(=O)O)C(C(=O)O)c1ccccc1` (stereo unspecified), the EC50 was above 200 µM and the IC50 was above 200 µM. With `CC(=O)OCC1OC(SC2=N/C(=C\c3cc4c(=O)c5ccccc5sc4s3)C(=O)N2c2ccccc2)C(OC(C)=O)C(OC(C)=O)C1OC(C)=O` (stereo unspecified), the EC50 was above 200 µM and the IC50 came to 115 µM. On the same counts, the results for `Cc1cccc(NC(=S)N=Nc2c(O)[nH]c3ccccc23)c1` are above 200 µM and 117 µM. Take `COc1cc2c(cc1OC)C(=O)/C(=C/c1ccccc1)CC2`: the EC50 is above 200 µM and the IC50 worked out at 117 µM. On the same counts, the results for `CCOCC(CN(CC)CC)N(CC)CC(=O)Nc1c(C)cccc1C` (stereo unspecified) are above 200 µM and 4.17 µM. With `COc1ccc2c(c1)-c1nc(=S)n(CCN(C)C)c3ccc([N+](=O)[O-])c(c13)N2`, the EC50 was above 2 µM and the IC50 came to 0.389 µM.

Take `CN(C)C[C@@H]1C2C=CC(C2)[C@@H]1CO` (stereo partly specified): the EC50 was above 490 µM and the IC50 was above 490 µM.

With `O=[N+]([O-])c1cc(C(F)(F)F)ccc1S(=O)(=O)c1ccccc1`, the EC50 is above 77.6 µM; the IC50 is 3.89 µM and 1.26 µM. For the compound `O=C(O)c1c2c(nc3ccccc13)CCCC2`, the EC50 is above 398 µM and the IC50 was above 398 µM.

On to `Oc1[nH]c2ccccc2c1N=Nc1nc(-c2ccc(Br)cc2)cs1`, for which the EC50 was above 200 µM and the IC50 is 120 µM.

`NC(CSSCC(N)C(=O)c1ccccc1)C(=O)c1ccccc1` (stereo unspecified): the EC50 was above 200 µM and the IC50 worked out at 9.77 µM. For `O=c1c(SCc2ccc(Cl)cc2)c(N2CCCCC2)cnn1-c1ccccc1` the same measures were above 24 µM and above 24 µM. With `C=CCC(NC(=O)OC(C)(C)C)C(=O)NC(CCC(=O)OCc1ccc([N+](=O)[O-])cc1)C(N)=O` (stereo unspecified) (Boc-[AllylGly]-Glu(ONb)-NH2; configuration not given here), the EC50 is above 200 µM and the IC50 came to 102 µM.

In the case of `CC1OC(CC(=O)O)Cc2c1c(O)c1c(O)cc(-c3cc(=O)c4c(=O)c5c(c(=O)c=4c3=O)CC(CC(=O)O)OC5C)c(O)c1c2O` (stereo unspecified), the outcome was inactive. For `COc1ccc(/C=C/C(=O)C(C)(C)C)cc1OC`, the EC50 is above 200 µM and the IC50 turned out to be 39.8 µM.

Turning to `CC[C@H]1[C@@H](C)C=C[C@@H](C)N1S(=O)(=O)c1ccc(C)cc1`, the EC50 is above 17.8 µM and the IC50 was above 17.8 µM.

As to `CC(=O)OCC1OC(OC(C)=O)C(Nc2ncc(-c3ccc(C)cc3)s2)C(OC(C)=O)C1OC(C)=O` (stereo unspecified), the EC50 was above 200 µM and the IC50 came out at 13.2 µM. In the case of `O=C(c1ccc(Br)cc1)n1c2ccc(Br)cc2c2nc3ccccc3nc21`, the EC50 was above 50.1 µM and the IC50 is above 50.1 µM.

With `COC(=O)/C=C1\C(CO[Si](C)(C)C(C)(C)C)OC(n2ccc(=O)[nH]c2=O)C1O` (stereo unspecified), the EC50 was above 200 µM and the half-maximal inhibitory concentration (IC50) is 6.17 µM. For `O=C(/C=C/c1ccsc1)c1ccco1` the same measures were above 200 µM and 11 µM. For the compound `COC(=O)c1cc2c(nc1C)-c1ccccc1OS2(=O)=O`, the outcome was inactive. Regarding `NCCCCCC(CCN)SCC1OC(n2cnc3c(N)ncnc32)C(O)C1O` (stereo unspecified), the EC50 was above 200 µM and the IC50 was determined as 107 µM. Turning to `COc1ccc(C2OC[C@H]3O[C@@H](OCc4ccccc4)[C@H](O)[C@@H](O)[C@@H]3O2)cc1` (stereo partly specified), the EC50 is above 200 µM and the IC50 is 35.5 µM. For `Cc1ccnc2c1NC(=O)c1cccnc1N2C1CC1` the same measures were 0.0437 µM and 195 µM. For the compound `Oc1c(-c2ccccc2)nc2cnccn12`, the EC50 is above 447 µM and the IC50 is above 447 µM. With `COC(=O)C1CCCN1` (stereo unspecified), the outcome was inactive.

In the case of `COC(=CN=Nc1nc(C#N)c(C#N)[nH]1)OC`, the EC50 was above 214 µM and the IC50 was found to be 162 µM.

As for `CC(=O)NC(CCCCNCc1ccccc1)C(=O)NCc1ccccc1` (stereo unspecified), the EC50 was above 676 µM and the IC50 was above 676 µM. In the case of `N#CC(C#N)=Cc1cccc(F)c1`, the EC50 was above 209 µM and the IC50 worked out at 42.7 µM. On the same counts, the results for `CCC/C(Cl)=N/OC(NC(=O)OCC)(C(F)(F)F)C(F)(F)F` are above 200 µM and 10 µM. For the compound `O=C1c2ccccc2C2(Br)C(=O)c3ccccc3C12` (stereo unspecified), the result was inactive. With `CCOC(=O)C1C(c2ccccc2)C2(C#N)C(=N)OC1(C)C2(C#N)C#N` (stereo unspecified), the EC50 is above 200 µM and the IC50 was 28.8 µM. With `CC(C)CC(N)C(=O)NC(CC(=O)O)C(=O)NC(CCCCN)C(=O)NC(C)C(=O)NC(CO)C(=O)NC(Cc1ccc(O)cc1)C(=O)NC(CO)C(=O)NC(C(=O)O)C(C)O` (stereo unspecified) (H-LDKASYST-OH; configuration not given here), the EC50 is above 56.2 µM and the IC50 is above 56.2 µM. `CC(C)(C)OC(=O)NC1CCCC1C(=O)C1=CCCC1` (stereo unspecified): the EC50 is above 200 µM and the IC50 came to 105 µM.

As to `S=C(Nc1ccccc1)Nc1[nH]c(=S)sc1-c1nc2ccccc2[nH]1`, the EC50 is above 1.86 µM and the IC50 was above 1.86 µM.

As for `CC1=NN2C(=N)/C(=C/c3ccc(F)cc3)C(=O)N=C2S1`, the EC50 is above 200 µM and the IC50 is above 200 µM. For the compound `CCOP(=O)(OCC)/C(C)=N/O`, the EC50 is above 1290 µM and the IC50 is above 1290 µM. In the case of `O=c1[nH]c(=O)c2nnoc2[nH]1`, the EC50 was above 200 µM and the IC50 was determined as 75.9 µM. Turning to `CCOP(=O)(OCC)/C(C#N)=C/c1c[nH]c2ccccc12`, the EC50 is above 200 µM and the IC50 was found to be 178 µM.

Turning to `NC(=O)c1cnc2sc3ccccc3n2c1=O`, the EC50 was above 200 µM and the IC50 was above 200 µM.

In the case of `Cc1ccc(NC(=O)CC(=O)n2nc(-c3ccccc3)c(N=Nc3ccccc3[N+](=O)[O-])c2-c2ccccc2)cc1`, the EC50 was above 25.1 µM and the IC50 was above 25.1 µM. `CCn1nc(C)c2c1C(=O)NCC(=O)N2`: the EC50 was above 200 µM and the half-inhibitory concentration (IC50) is above 200 µM. Regarding `CCOC1C(Br)Cn2c(=O)c3cc4ccccc4cc3c(=O)n2C1C` (stereo unspecified), the EC50 was above 17.8 µM and the IC50 is above 17.8 µM. For the compound `Cc1nc(C(N)=S)sc1C(=O)/C=C/c1c(O)ccc2ccccc12`, the EC50 is above 53.7 µM and the IC50 worked out at 42.7 µM. Consider `N/C(=N/N=C/c1cccnc1)NO`, for which the outcome was inactive. `O=C(C(=Cn1c(=S)[nH]c2ccc([N+](=O)[O-])cc21)C(=O)c1ccccc1)c1ccccc1`: the EC50 is above 200 µM and the IC50 turned out to be 81.3 µM. With `NC(=O)c1ncn(C2C=CC(CP(=O)(O)O)C2)c1N` (stereo unspecified), the EC50 is above 200 µM and the IC50 was above 200 µM.
